Results from patent publication US10744201B2, “Method for treating rheumatoid arthritis with a human IL-6 receptor antibody and methotrexate” (Chugai Seiyaku Kabushiki Kaisha, priority 2003, dated 2020).

Columns and labels:
[1] = tested on: patients with active rheumatoid arthritis; assay: Phase II trial: reduction of swollen joint count; type: in vivo, human
Protocol: (§1) The efficacy, safety and tolerability of MRA were assessed.
Reduction of Swollen Joint Count (Table 2)
The mean swollen joint count was similar across all the treatment groups at baseline.

[2] = tested on: patients with active rheumatoid arthritis; assay: Phase II trial of MRA alone and with methotrexate: ACR 20/50/70 improvement rates; type: in vivo, human; settings: for ACR 20 / ACR 50 / ACR 70: 16 weeks
Protocol: as §1
Study design: a double-blind, randomized, parallel group study by central randomization method
ACR improvement criteria: The cases where among the following 7 items, the number of swelling joints and the number of pain joints are improved by 20% or more and improvement by 20% or more is observed in three out of the remaining five items are determined as 20% or more improvement in ACR criteria. Further, 50% and 70% improvement cases indicate the patient cases where the above 20% improved parts are improved by 50% and 70%, respectively.
(1) Number of swelling joints
(2) Number of tender joints
(3) Pain assessment by a patient
(4) Global assessment of disease activity by a patient
(5) Global disease activity by a physician
(6) Assessment of physical function by a patient

[3] = tested on: patients with active rheumatoid arthritis; assay: Phase II trial: development of anti-MRA antibodies; type: in vivo, human; settings: 8 mg/kg treatment groups
Protocol: as §1
The development of anti-MRA antibodies was examined. None occurred at the 8 mg/kg treatment groups (monotherapy or combination with MTX). At 2 or 4 mg/kg treatment groups, the number of incidents was less in groups in combination with MTX than MRA monotherapy groups.

[4] = tested on: patients with active rheumatoid arthritis; assay: Phase II trial: safety (adverse events, laboratory data, infusion reaction); settings: for serious adverse events of which causal relationship could not be denied: hypersensitivity: no combination with MTX, after the 3rd or 4th MRA administration
Protocol: Subjects: Patients with rheumatoid arthritis diagnosed based on the 1987 disease classification of the American College of Rheumatology (ACR), of at least 6 months duration were enrolled.
Dosage and Administration: Seven groups: 0 mg/kg (placebo)+MTX, 2 mg/kg MRA+MTX, 4 mg/kg MRA+MTX, 8 mg/kg MRA+MTX, 2 mg/kg MRA+MTX placebo, 4 mg/kg MRA+MTX placebo, and 8 mg/kg MRA+MTX placebo. MRA or placebo administration is given by intravenous infusion, at 4-week intervals. MTX or MTX placebo administration is given orally, once weekly, at 10-25 mg/week.
Study Method: The assigned dose was administered by intravenous infusion, four times in total at 4-week intervals, and efficacy and safety were evaluated at 2-week intervals up to 16 weeks, and follow-up observation was done at 20 weeks. The primary endpoint for efficacy was the rate of ACR 20 at 16 weeks (4 weeks after the last dose). Secondary endpoints included rates of ACR 50 and ACR 70 at 16 weeks (4 weeks after the last dose).
Among 359 enrolled patients, the safety evaluation sets, the full analysis sets, and PPS (per protocol set) were 359, 354, and 307, respectively.
An infusion reaction was defined as an adverse event occurring within 24 hours of study drug administration.

[5] = 2 mg/kg MRA i.v. at 4-week intervals x4, with MTX or MTX placebo 10-25 mg/week oral
[6] = 4 mg/kg MRA i.v. at 4-week intervals x4, with MTX or MTX placebo 10-25 mg/week oral
[7] = 8 mg/kg MRA i.v. at 4-week intervals x4, with MTX or MTX placebo 10-25 mg/week oral
[8] = 0 mg/kg (placebo)+MTX 10-25 mg/week oral (control group)

Compound: MRA: recombinant humanised anti-human interleukin-6 receptor monoclonal antibody of the IgG1 sub-class that inhibits the function of IL-6
- Swollen joint count, Change from Baseline, Mean ± SD ([1]; 2 mg/kg MRA, with MTX or MTX placebo, Week 16): −4.5 ± 5.7
- Swollen joint count, Change from Baseline, Mean ± SD ([1]; 4 mg/kg MRA, with MTX or MTX placebo, Week 16): −5.8 ± 4.1
- Swollen joint count, mean difference (95% CI) to the MTX group ([1]; 8 mg/kg MRA group vs MTX group, Week 16): −2.31 (−4.07, −0.55)
- Swollen joint count, Change from Baseline, Mean ± SD ([1]; 8 mg/kg MRA, with MTX or MTX placebo, Week 16): −8.4 ± 4.6
- linear dose-relationship of reduction in swollen joint count ([1]; 2, 4, 8 mg/kg MRA groups, monotherapy p<0.001, combination p=0.004): statistically significant linear dose-relationship
- ACR 20 [2, 5]: 30.8%
- ACR 50 [2, 5]: 5.8%
- ACR 70 [2, 5]: 1.9%
- ACR 20 [2, 6]: 61.1%
- ACR 50 [2, 6]: 27.8%
- ACR 70 [2, 6]: 5.6%
- ACR 20 [2, 7]: 62.7%
- ACR 50 [2, 7]: 41.2%
- ACR 70 [2, 7]: 15.7%
- dose dependency in ACR 20 improvement rate ([2]; 2, 4, 8 mg/kg MRA alone groups): statistically significant dose dependency
- dose dependent response for ACR50 and ACR70 improvement rate ([2]; 2, 4, 8 mg/kg MRA, alone and MTX-combined groups): statistically significant dose dependent response
- dose-response (overall result) ([2]; in vivo): clear dose-response
- effectiveness to treat patients with rheumatoid arthritis ([2]; in vivo): confirmed
- development of anti-MRA antibodies [3]: None
- serious adverse events of which causal relationship could not be denied: hypersensitivity ([4]; 2 mg/kg MRA group): four patients of hypersensitivity
- serious adverse events of which causal relationship could not be denied: hypersensitivity ([4]; 4 mg/kg MRA group): one patient of hypersensitivity
- Atherogenic Index ([4]; MRA groups): no overall change
- laboratory data relating to lipids (total cholesterol, HDL cholesterol and triglyceride) ([4]; MRA groups): increase
- number of patients experiencing an infusion reaction (adverse event within 24 hours of study drug administration) ([4]; across treatment groups): possible inverse dose-response
- ALT and AST levels (hepatic functions) ([4]; equivalent to elevations observed in other patients with rheumatoid arthritis): elevation
- CRP and ESR (parameters for disease activity) ([4]; in a dose dependent manner): decreases of CRP and ESR
- hemoglobin (parameter for disease activity) ([4]; in a dose dependent manner): elevation of hemoglobin
- neutrophil count ([4]; in some patients): Slight transient decrease
- safety ([4]; in vivo): confirmed

Compound: CN(Cc1cnc2nc(N)nc(N)c2n1)c1ccc(C(=O)N[C@@H](CCC(=O)O)C(=O)O)cc1 [MTX, methotrexate]
- Swollen joint count, Change from Baseline, Mean ± SD ([1]; MTX alone (MRA placebo), Week 16): −5.7 ± 6.1
- ACR 20 [2, 8]: 40.8%
- ACR 50 [2, 8]: 28.6%
- ACR 70 [2, 8]: 16.3%
